Patent US8748377B2, “Pharmaceutical compositions” (GlaxoSmithKline LLC, priority 2008, dated 2014)
Several values for one entry are separate records, joined by “and”; a condition that tells them apart may be missing. Identical values can stand only once. Marks after values point to notes of the source that are not given here.

Experiments:
type 2 diabetic subjects [1] = experiment: Phase 2 randomized, placebo-controlled 16-week trial of weekly, biweekly and monthly albiglutide: glycemic efficacy (A1C, FPG, weight); type: in vivo, human; details: for Weight loss: across albiglutide groups
Text: Main outcome measure was change from baseline A1C, week 16 vs placebo.
Men and women of non-childbearing potential from 18-75 years of age were eligible for inclusion if diagnosed with type 2 diabetes ≧3 months before screening. Subjects were drug-naïve (diet & exercise) or treated with diet and exercise plus metformin as monotherapy stable for >3 months before prescreening (1 week prior to screening visit). […] Additional inclusion criteria included: BMI≧20 and ≦40 kg/m^2 and A1C at screening ≧7% and ≦10%.
A1C and fasting plasma glucose (FPG) measurements were performed at Screening, Baseline, and at Weeks 2 (FPG Only), 4, 5, 7, 8, 9, 12, 15, and 16.
The primary efficacy endpoint was change from baseline A1C at week 16 vs placebo across different doses within each schedule (weekly, biweekly, and monthly). The primary analysis was an ANCOVA model with main effects for treatment group and prior metformin therapy, adjusting for baseline A1C. Dose response was evaluated using contrasts within the ANCOVA model framework. Pairwise comparisons were performed in the same ANCOVA model. Secondary endpoints were analyzed similarly. Responder analysis and incidence of hypoglycemia were summarized by group statistics. […] Safety and tolerability data were collected categorically.
(§1) Comparisons were made on the intent-to-treat population, defined as all randomly assigned subjects with at least one post-baseline assessment of the primary endpoint, using last-observation carried forward. The safety population included all randomized patients who received at least one dose of any medication after being randomized. An interim analysis was conducted at 8 weeks for administrative purposes by an independent statistical analysis group; blinding was retained for study investigators and study personnel with daily operational responsibility.
Patients were also assessed for reduction in fasting plasma glucose (FPG) and HbA1c reduction based on background metformin (MET) treatment.

[2] = system: Japanese subjects with type 2 diabetes; experiment: 28-day study in Japanese subjects: safety/tolerability; type: in vivo, human
Method: In the 100 mg monthly group, most common AEs were flatulence (n=3, 38%), vomiting (n=3, 38%) and nausea (n=2, 25%).

[3] = system: Japanese subjects with type 2 diabetes; experiment: 28-day single-blind placebo-controlled study in Japanese subjects: pharmacodynamics (FPG, AUC0-4 glucose, A1C); type: in vivo, human
[4] = Baggio, et al. Diabetes 53:2492-2500, 2004; cited from earlier work
type 2 diabetic subjects [5] = system: type 2 diabetic subjects; parameters: species or system human; details: in vivo
Method: (§2) Adverse event assessments and safety analyses (including electrocardiograms, vital sign measurements and physical exams) were conducted throughout the study. Nausea and vomiting were monitored for occurrence and duration. Immunogenicity assessments were performed with samples taken at baseline and at weeks 1, 4, 8, and 12, and 16. […] Population PK analysis was performed using a nonlinear mixed-effect modelling approach with NONMEM software (Icon Development Solutions, Ellicott City, Md.).
as §1
Gastrointestinal (GI) adverse events may limit adherence to GLP-1 therapies.

[6] = system: anti-albiglutide antibodies; experiment: Phase 2 trial: immunogenicity, anti-albiglutide antibodies via ELISA; type: in vivo, human
Method: as §2, with “16. Samples were screened for anti-albiglutide antibodies via ELISA (Matthews, et al. J Clin Endocrinol Metab. 2008; DOI: 10.1210/jc.2008-1518).” for “16.”
An 11-week post-treatment washout period was included to monitor development of anti-albiglutide antibodies. […] The appearance of anti-albiglutide antibodies was largely transient, with 1 subject remaining positive at week 27. […] There was no obvious association between presence of anti-albiglutide antibodies and either efficacy or safety.

[7] = 100 mg monthly sc, week 16, listed as ALB
[8] = 100 mg monthly sc, week 16, listed as albiglutide

Albiglutide: Long-acting GLP-1 receptor agonist: two DPP-4-resistant human GLP-1 analogs (GLP-1(7-36)(A8G)) fused to human albumin; SEQ ID NO:1
A1C change from baseline (mean) (type 2 diabetic subjects [1]; 50 mg monthly sc, week 16): −0.55%
FPG change from baseline (mean) (type 2 diabetic subjects [1]; 50 mg monthly sc, week 16): -0.72 ± 2.8 mmol/L
Subjects achieving A1C < 7.0% (type 2 diabetic subjects [1]; 50 mg monthly sc, week 16): 22.9%
A1C change from baseline (mean) (type 2 diabetic subjects [1]; 50 mg monthly sc, week 16, listed as ALB): −0.6 ± 1.0%
MET patients achieving HbA1c <7% (type 2 diabetic subjects [1]; 100 mg monthly): 46%
A1C change from baseline (mean) (type 2 diabetic subjects [1]; 100 mg monthly sc, week 16): −0.87 ± %
A1C change from baseline (mean) (type 2 diabetic subjects [1]; [7]): −0.9 ± 0.9 %
FPG change from baseline (mean) (type 2 diabetic subjects [1]; [7]): -1.22 ± 3.5 mmol/L
Subjects achieving A1C < 7.0% (type 2 diabetic subjects [1]; [7]): 48.4%
A1C change from baseline (mean) (type 2 diabetic subjects [1]; [8]): −0.87% and −0.9%
FPG change from baseline (mean) (type 2 diabetic subjects [1]; [8]): -1.22 mmol/L
Subjects achieving A1C < 7.0% (type 2 diabetic subjects [1]; [8]): 48%
HbA1c reduction in MET subjects (type 2 diabetic subjects [1]; 100 mg monthly, 16 weeks): −0.77%
FPG reduction in background metformin (MET) subjects (type 2 diabetic subjects [1]; 100 mg monthly, after 16 weeks): -1.80 mmol/L
A1C reduction compared with placebo (ANCOVA model) (type 2 diabetic subjects [1]; 100 mg monthly, week 16): −0.60%
FPG change from baseline compared with placebo (type 2 diabetic subjects [1]; 100 mg monthly, week 16): -1.17 mmol/L
Mean systolic and diastolic blood pressure (type 2 diabetic subjects [1]; 16-week trial): tended to reduce
Plasma lipoprotein profile (type 2 diabetic subjects [1]; 16-week trial): did not significantly change
Weight loss (type 2 diabetic subjects [1]; MET group, 16 weeks): −0.4 to −2.1 kg
Average weight loss (type 2 diabetic subjects [1]; highest dose regimens in each timing schedule, 16 weeks): −1.1 to −1.7 kg
A1C reduction from a mean baseline A1C of 8.0% (type 2 diabetic subjects [1]; maximum doses of each schedule (30 mg weekly, 50 mg biweekly, 100 mg monthly)): 0.8-0.9%
Weight loss (type 2 diabetic subjects [1]; overall population, 16 weeks): −0.9 to −1.8 kg
β-cell function (assessed by HOMA-B) (type 2 diabetic subjects [1]; subjects receiving albiglutide): Small improvements
Nausea (AE incidence) ([2]; 100 mg monthly group, n=2): 25%
Flatulence (AE incidence) ([2]; 100 mg monthly group, n=3): 38%
Vomiting (AE incidence) ([2]; 100 mg monthly group, n=3): 38%
Serious AEs ([2]; all doses, 28 days): No serious AEs
Tolerability ([2]; all doses, 28 days): generally well-tolerated
A1C, PBO-adjusted change from baseline (LS Means Difference) ([3]; 15 mg weekly, day 29): −0.58*/ %
FPG, PBO-adjusted change from baseline (LS Means Difference) ([3]; 15 mg weekly, day 29): −34.5* mg/dL
A1C, PBO-adjusted change from baseline (LS Means Difference) ([3]; 15 mg weekly, day 43): −0.87* %
A1C, PBO-adjusted change from baseline (LS Means Difference) ([3]; 30 mg weekly, day 29): −0.57*/ %
FPG, PBO-adjusted change from baseline (LS Means Difference) ([3]; 30 mg weekly, day 29): −35.6* mg/dL
A1C, PBO-adjusted change from baseline (LS Means Difference) ([3]; 30 mg weekly, day 43): −0.78* %
A1C, PBO-adjusted change from baseline (LS Means Difference) ([3]; 50 mg biweekly, day 29): −0.63*/ %
FPG, PBO-adjusted change from baseline (LS Means Difference) ([3]; 50 mg biweekly, day 29): −31.3* mg/dL
A1C, PBO-adjusted change from baseline (LS Means Difference) ([3]; 50 mg biweekly, day 43): −0.79* %
A1C, PBO-adjusted change from baseline (LS Means Difference) ([3]; 100 mg monthly, day 29): −0.51*/ %
FPG, PBO-adjusted change from baseline (LS Means Difference) ([3]; 100 mg monthly, day 29): -13.2 mg/dL
A1C, PBO-adjusted change from baseline (LS Means Difference) ([3]; 100 mg monthly, day 43): −0.59* %
Onset of improvement of FPG and weighted mean AUC0-4 glucose ([3]; Japanese subjects): improved as early as day 3
Permeability to the central nervous system [4]: relatively impermeant
Documented hypoglycemia (type 2 diabetic subjects [5]): 0-3.1%
Documented hypoglycemia (in words) (type 2 diabetic subjects [5]): not increased
Injection site local skin reactions (type 2 diabetic subjects [5]): 2.9-28.2%
Subjects positive for anti-albiglutide antibodies ([6]; 8 subjects in placebo and albiglutide arms, incl. 1 on placebo and 2 positive at baseline, through week 27): 2.5%
Character of anti-albiglutide antibodies ([6]; antibody-positive subjects): non-neutralizing, low-titer
